Drawing on patent US20170305922A1, “CARM1 INHIBITORS AND USES THEREOF” (Epizyme, Inc., priority 2014, published 2017), this text covers IC50 for 22 molecules.

The target of test [1] is T1, Human CARM1 (PRMT4) (Homo sapiens, UniProt Q86X55).
T1 construct: Flag-CARM1-His was eluted with 200 ug/ml FLAG peptide in buffer A; made in house; host or cells: HEK 293F cells infected with recombinant baculovirus (pFastBacMam)
T1 sequence (Q86X55 1-585 isoform Q86X55-1): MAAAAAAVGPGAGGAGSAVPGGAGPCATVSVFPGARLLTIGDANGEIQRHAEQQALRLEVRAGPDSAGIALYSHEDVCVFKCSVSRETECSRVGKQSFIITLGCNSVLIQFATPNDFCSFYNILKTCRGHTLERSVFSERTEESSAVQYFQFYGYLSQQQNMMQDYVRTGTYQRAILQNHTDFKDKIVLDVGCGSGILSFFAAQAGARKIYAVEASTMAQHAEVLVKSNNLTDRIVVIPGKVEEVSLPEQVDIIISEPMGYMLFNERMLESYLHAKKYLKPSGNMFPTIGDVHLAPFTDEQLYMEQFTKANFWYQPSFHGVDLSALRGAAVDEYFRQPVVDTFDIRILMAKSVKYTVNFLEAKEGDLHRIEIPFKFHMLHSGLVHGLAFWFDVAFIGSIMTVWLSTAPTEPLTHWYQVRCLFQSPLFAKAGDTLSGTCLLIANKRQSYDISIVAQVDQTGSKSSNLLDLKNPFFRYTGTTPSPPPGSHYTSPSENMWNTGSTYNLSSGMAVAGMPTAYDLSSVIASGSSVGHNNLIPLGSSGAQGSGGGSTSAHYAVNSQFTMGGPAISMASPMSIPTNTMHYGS
In words: CARM1 enzyme assay on peptide substrates (3H-SAM Flashplate). Conditions: Biochemical assay; CARM1 0.25 nM, 3H-SAM 30 nM, peptide 250 nM; read-out: Biochem IC50.

Test [2] concerns asymmetric di-methyl PABP1 in RKO cells. In words: RKO methylation assay: In Cell Western (ICW) for asymmetric di-methyl PABP1 (PABP1me2a). Conditions: Homo sapiens, RKO, 48 h, Cellular-based (PABP1me2a) ICW (In Cell Western) assay. The essentials: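 In-cell western on compound-exposed RKO cells (48 hours): asymmetric di-methyl PABP1 detected by antibody at 800 nm, DNA content by DRAQ5 at 700 nm. Percent inhibition from signal ratios against DMSO (minimum) and 20 μM reference compound (maximum) wells; IC50 curves fitted from triplicates.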

Molecules are shown by their SMILES.

Turning to `CCOc1ncc2c(n1)CN(c1nc(-c3cc(OC[C@H](O)CNC)ccc3Cl)nc(-c3c(Cl)cnn3C)c1C)C2` [Example 307], the concentration for half-maximal inhibition (IC50) came to 3.86 nM in test [1] and 45.4 nM in test [2].
Regarding `Cc1noc(C)c1-c1nc(-c2cc(OC[C@H](O)CN(C)C=O)ccc2Cl)nc(N2Cc3cccnc3C2)c1C` [Example 308], the IC50 in test [1] worked out at 120 nM; in test [2], 1820 nM.
Take `CNC[C@@H](O)COc1ccc(Cl)c(-c2nc(-c3c(C)noc3C)c(C)c(N3CC4(C3)CN([C@H](C)C(F)(F)F)C4)n2)c1` [Example 330]: the IC50 turned out to be 4.83 nM in test [1] and 40.9 nM in test [2].
Regarding `CNC[C@@H](O)COc1ccc(Cl)c(-c2nc(-c3c(C)noc3C)c(C)c(N3CC4(C3)CN([C@@H](C)C(F)(F)F)C4)n2)c1` [Example 331], the IC50 came to 6.31 nM in test [1] and 32.9 nM in test [2].
Taken in the same sequence, the figures for `CNC[C@@H](O)COc1ccc(Cl)c(-c2nc(-c3c(C)c(Cl)nn3C)c(C)c(N3CC4(CC(C#N)C4)C3)n2)c1` [Example 332] were 4.1 nM and 80.9 nM.
Take `CNC[C@@H](O)COc1ccc(Cl)c(-c2nc(-c3c(C)c(Br)nn3C)c(C)c(N3CC4(CC(C#N)C4)C3)n2)c1` [Example 333]: the half-inhibitory concentration (IC50) is 2.46 nM in test [1] and 64.4 nM in test [2].
Regarding `CNC[C@@H](O)COc1ccc(Cl)c(-c2nc(-c3c(Cl)cnn3C)c(C)c(N3CC4=C(CN(C(=O)OC)CC4)C3)n2)c1` [Example 334], the 50% inhibitory concentration (IC50) in test [1] came to 2.53 nM; in test [2] it was 43.4 nM.
`CNC[C@@H](O)COc1ccc(Cl)c(-c2nc(-c3c(Cl)cnn3C)c(C)c(N3CC4=C(CN(C(=O)OC)C4)C3)n2)c1` [Example 335]: the IC50 in test [1] was 2.28 nM; in test [2], 30.5 nM.
Taken in the same sequence, the figures for `CNC[C@@H](O)COc1ccc(Cl)c(-c2nc(-c3c(Br)cnn3C)c(C)c(N3CC4=C(CN(C(=O)OC)C4)C3)n2)c1` [Example 336] were 3.03 nM and 32.1 nM.
Taken in the same sequence, the figures for `CNC[C@@H](O)COc1ccc(Cl)c(-c2nc(-c3c(C)noc3C)c(C)c(N3CC4(CCCN(CC(F)F)C4)C3)n2)c1` [Example 337] were 4.98 nM and 60 nM.
Take `CNC[C@@H](O)COc1ccc(Cl)c(-c2nc(-c3c(C)noc3C)c(C)c(N3CC4(CCN(C(=O)OC)CC4)C3)n2)c1Cl` [Example 338]: the values for the IC50 in test [1] and in test [2] were 31.1 nM and 1820 nM, respectively.
As to `CNC[C@@H](O)COc1ccc(Cl)c(-c2nc(-c3c(Cl)cnn3C)c(C)c(N3Cc4cnc(OC)nc4C3)n2)c1` [Example 339], the concentration for half-maximal inhibition (IC50) in test [1] came out at 2.54 nM; in test [2], 65.4 nM.
The like results for `CNC[C@@H](O)COc1ccc(Cl)c(-c2nc(-c3c(Cl)cnn3C)c(C)c(N3Cc4cnc(N5CCC5)nc4C3)n2)c1` [Example 340] were, in that order, 2 nM and 17.5 nM.
Taken in the same sequence, the figures for `CNC[C@@H](O)COc1ccc(Cl)c(-c2nc(-c3c(Cl)cnn3C)c(C)c(N3Cc4nccnc4C3)n2)c1` [Example 341] were 2.7 nM and 184 nM.
In the case of `CNC[C@@H](O)COc1ccc(Cl)c(-c2nc(-c3c(Cl)cnn3C)c(C)c(N3Cc4cnn(C)c4C3)n2)c1` [Example 342], the 50% inhibitory concentration (IC50) in test [1] was 2.74 nM; in test [2], 123 nM.
The like results for `CNC[C@@H](O)COc1ccc(Cl)c(-c2nc(-c3c(Cl)cnn3C)c(C)c(N3Cc4cncnc4C3)n2)c1` [Example 344] were, in that order, 12.8 nM and 713 nM.
Consider `CNC[C@@H](O)COc1ccc(Cl)c(-c2nc(-c3c(C)c(C#N)nn3C)c(C)c(N3CC4(CCN(C(=O)OC)CC4)C3)n2)c1` [Example 345], for which the IC50 came to 5.66 nM in test [1] and 262 nM in test [2].
Taken in the same sequence, the figures for `CNC[C@@H](O)COc1ccc(Cl)c(-c2nc(-c3c(C)c(C#N)nn3C)c(C)c(N3Cc4cncnc4C3)n2)c1` [Example 346] were 2.31 nM and 140 nM.
The like results for `CNC[C@@H](O)COc1cccc(-c2nc(-c3c(C#N)cnn3C)c(C)c(N3Cc4cccnc4C3)n2)c1` [Example 347] were, in that order, 28.2 nM and more than 2000 nM.
The like results for `CNC[C@@H](O)COc1ccc(Cl)c(-c2nc(-c3c(C#N)cnn3C)c(C)c(N3Cc4cccnc4C3)n2)c1` [Example 348] were, in that order, 5.67 nM and 1670 nM.
`CNC[C@@H](O)COc1ccc(Cl)c(-c2nc(-c3c(C#N)cnn3C)c(C)c(N3Cc4cncnc4C3)n2)c1` [Example 349]: the IC50 in test [1] is 7.81 nM; in test [2] it was 3110 nM.
The like results for `CNC[C@@H](O)COc1cccc(-c2nc(-c3c(C)noc3C)c(C)c(N3CC4(CCN(C(=O)OC)CC4)C3)n2)c1Cl` [Example 350] were, in that order, 37.2 nM and 7200 nM.
